Measurements: US5254590A, “Acylaminophenol compounds” (Adir et Compagnie, priority 1991, dated 1993)

How the values were obtained:
[1] = system: human LDLs; experiment: Modification of the LDLs by copper sulfate (MDA production, lipid peroxidation); type: biochemical; details: 24 hours, copper sulfate 5×10^-6 M; probucol as reference
Experimental: The human LDLs are incubated for 24 hours in the presence of copper sulfate (5×10^-6 M) with or without the test compounds (concentrations between 10^-7 M and 10^-4 M). After incubation, the peroxidation of the LDLs is evaluated by electrophoresis on agar gel and by the formation of one of the products of lipid peroxidation: malondialdehyde (MDA) according to the technique described by […] et al. (J. Clin. Invest. 77, 641-644, 1986).

[2] = target: T1, acyl CoA-cholesterol-acyl transferase (ACAT) (Mus musculus, UniProt Q61263); experiment: Determination of ACAT: inhibition of esterification of free intracellular cholesterol in macrophage line J 774; type: cell-based; details: J774; macrophage line J 774, 24 hours, 10^-5 M, relative to placebo; read-out: percentage inhibition of ACAT activity of the macrophages
T1 construct: in the presence of a macrophage J 774 homogenate; endogenous in cells; host or cells: J774 macrophage line
T1 sequence (Q61263 1-540): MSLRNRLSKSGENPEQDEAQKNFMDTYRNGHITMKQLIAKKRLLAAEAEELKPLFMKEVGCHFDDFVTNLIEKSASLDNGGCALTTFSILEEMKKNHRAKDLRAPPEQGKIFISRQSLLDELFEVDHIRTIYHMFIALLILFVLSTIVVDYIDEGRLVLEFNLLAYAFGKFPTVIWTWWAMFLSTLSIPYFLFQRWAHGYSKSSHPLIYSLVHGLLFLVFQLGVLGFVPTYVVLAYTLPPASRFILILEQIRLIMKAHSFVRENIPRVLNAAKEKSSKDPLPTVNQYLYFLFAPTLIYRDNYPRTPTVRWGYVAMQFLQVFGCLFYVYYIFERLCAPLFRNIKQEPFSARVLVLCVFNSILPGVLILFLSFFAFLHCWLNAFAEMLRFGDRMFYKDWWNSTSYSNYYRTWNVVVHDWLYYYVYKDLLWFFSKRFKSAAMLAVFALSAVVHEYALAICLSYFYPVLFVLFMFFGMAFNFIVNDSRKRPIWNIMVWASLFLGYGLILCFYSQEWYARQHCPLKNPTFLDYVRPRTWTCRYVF
Experimental: The test products or the placebo are incubated in the presence of the macrophages for 24 hours at the concentration of 10^-5 M. The efficacy of these compounds is evaluated by calculating the ACAT activity of the macrophages incubated in the presence of a product relative to that of macrophages incubated in the presence of the placebo and is therefore expressed as a percentage inhibition.

[3] = system: hypercholesterolemic hamsters; experiment: Effect in hypercholesterolemic hamsters (total plasma cholesterol); type: in vivo, Syrian golden hamsters; details: orally, 10 mg/kg/day
Experimental: Syrian golden hamsters were subjected to a 0.2% hypercholesterolemic diet for 3 weeks. They were then treated orally either by the vehicle for the compounds tested (control group), or by a reference product, or by an original product at the dose of 10 mg/kg/day for 2 weeks. At the end of the treatment, the total cholesterol was measured in the plasma.

[4] = target: T1, acyl CoA-cholesterol-acyl transferase (ACAT); experiment: Determination of ACAT: inhibition of esterification of free intracellular cholesterol in macrophage line J 774; type: cell-based

Compound	inhibition at 10 µM [2]	other results
CCCCCCCCCCC(C)(C)C(=O)Nc1c(OC)cc(OC)cc1OC [Ref. 2, 2,4,6-trimethoxy-(2,2-dimethyldodecanamido)benzene]	–	antioxidant activity towards human LDLs (in words) [1]: completely lack this activity
CCCCC/C=C\C/C=C\CCCCCCCC(=O)Nc1cc(C)c(O)c(C)c1C [Example 21, 2,3,6-Trimethyl-4-(9,12-octadecadienamido)phenol cis, cis isomer]	90%	–
CCCCCCCCCCC1(C(=O)Nc2cc(C)c(O)c(C)c2C)CCCC1 [Example 57, 2,3,6-Trimethyl-4-[(1-decyl-cyclopent-1-yl)carboxamido]phenol]	98%	–
CCCCCCCCCCC(C)(C)C(=O)Nc1cc(C)c(O)c(C)c1C [Example 15, 2,3,6-Trimethyl-4-(2,2-dimethyldodecanamido)phenol]	93%	–
CCCCCCCCCCCC(C)(C)C(=O)Nc1cc(C)c(O)c(C)c1C [Example 16, 2,3,6-Trimethyl-4-(2,2-dimethyltridecanamido)phenol]	96%	–
CCCCCCCC/C=C\CCCCCCC(C)C(=O)Nc1cc(C)c(O)c(C)c1C (stereo not drawn) [Example 20, 2,3,6-Trimethyl-4-(2-methyl-9-octadecenamido)phenol cis isomer]	95%	hypocholesterolemiant activity, level of total plasma cholesterol ([3]; 15 days (2 weeks), 0.2% hypercholesterolemic diet): normalizes the level of cholesterol in the hypercholesterolemic animals; hypocholesterolemiant activity compared with reference products (Ref. 1 and Ref. 2) ([3]; same conditions): considerably higher than that of the reference products tested
CCCCCCCCCC(C)C(=O)Nc1cc(C)c(O)c(C)c1C (stereo not drawn) [Example 4, 2,3,6-Trimethyl-4-(2-methylundecanamido)phenol]	91%	–
CCCCC/C=C\C/C=C\CCCCCCC(C)C(=O)Nc1cc(C)c(O)c(C)c1C (stereo not drawn) [Example 58, 2,3,6-Trimethyl-4-(2-methyl-9,12-octadecadienamido)phenol, cis, cis isomer]	97%	–
CCCCCCCC/C=C\CCCCCCCC(=O)Nc1c(OC)cc(OC)cc1OC [Ref. 1, 2,4,6-trimethoxy-(9-(Z)octadecenamido)benzene]	75%	IC50 [4]: 3 µM; antioxidant activity towards human LDLs (in words) [1]: completely lack this activity
CCCCCCCCCC(C)(C)C(=O)Nc1cc(C)c(O)c(C)c1C [Example 14, 2,3,6-Trimethyl-4-(2,2-dimethylundecanamido)phenol]	92%	–
CCCCCC=CCC=CCC=CCCCCC(=O)Nc1cc(C)c(O)c(C)c1C [Example 23, 2,3,6-Trimethyl-4-(6,9,12-octadecatrienamido)phenol]	94%	–
